Data reported in article PMC12691669, “Inhibitors of the 20S proteasome β5 subunit as potent and selective agents against Trichomonas vaginalis” (Antimicrobial Agents and Chemotherapy, 2025).
Entries after “also recorded” stand apart in the source; their conditions may differ. Like-named read-outs stand apart in the source and are kept apart here.

Key:
[1] = test system: T. vaginalis Tv20S proteasome β2 subunit; experiment: In vitro proteasome assay, Ac-FRSR-amc substrate; assay type: biochemical, Trichomonas vaginalis; details: recombinant Tv20S, mean ± SD of three experiments; for IC50: read-out: Tv20S proteasome inhibition of β2 subunit (IC50)
Experimental: (§1) The T. vaginalis proteasome was expressed in recombinant form as previously described ([27]). Briefly, Spodoptera frugiperda cells were co-infected with three baculovirus vectors carrying the T. vaginalis genes for the 7 α-subunits, 7 β-subunits, and the Ump-1 chaperone, respectively. The resulting proteasome complex was purified from cell lysates via streptavidin column and size exclusion chromatography and stored at −80°C. Purified human c20S proteasome and recombinant human proteasome activator PA28α ([21]) were obtained from Bio-Techne and stored at −80°C. Dilutions of the test agents were transferred to 384-well plates (Greiner Bio-One) in triplicate wells using an Echo 650 Acoustic Liquid Handler (Beckman Coulter). Six replicate plates were prepared for each compound for testing with three T. vaginalis-optimized substrates and three human-optimized substrates. After dispensing, plates were sealed and stored at −20°C. The following fluorescent substrates and final substrate concentrations were used to assay subunit activities of the T. vaginalis proteasome (Tv20S) ([28]) or the human constitutive proteasome (c20S) ([19], [52]): Ac-RYFD-amc (Genscript) at 100 µM for Tv20S β1 subunit, Ac-FRSR-amc (Genscript) at 20 µM for Tv20S β2 subunit, Ac-GWYL-amc (Genscript) at 20 µM for Tv20S β5 subunit, z-LLE-amc (R&D Systems) at 80 µM for c20S β1 subunit, z-VLR-amc (AdipoGen Life Sciences) at 30 µM for c20S β2 subunit, and suc-LLVY-amc (R&D Systems) at 65 µM for c20S β5 subunit. Substrates and proteasomes were diluted in an assay buffer consisting of HEPES pH 7.5 and 1 mM DTT. For the human proteasome assays, 2 nM c20S was incubated at room temperature with 200 nM PA28α for 1 h to activate the complex prior to addition to the 384-well plates containing the substrate-inhibitor mixtures. […] Both proteasomes were added to the wells at a 1 nM final assay concentration. Fluorescence was measured over 4 h at 360 nm excitation and 460 nm emission on a Biotek Synergy HTX plate reader.

[2] = molecular target: T. vaginalis Tv20S proteasome β5 subunit (Trichomonas vaginalis, UniProt A2DD57+A2F716); experiment: biochemical; assay type: biochemical
Sequence of T. vaginalis Tv20S proteasome β5 subunit (A2DD57 entry or part of it): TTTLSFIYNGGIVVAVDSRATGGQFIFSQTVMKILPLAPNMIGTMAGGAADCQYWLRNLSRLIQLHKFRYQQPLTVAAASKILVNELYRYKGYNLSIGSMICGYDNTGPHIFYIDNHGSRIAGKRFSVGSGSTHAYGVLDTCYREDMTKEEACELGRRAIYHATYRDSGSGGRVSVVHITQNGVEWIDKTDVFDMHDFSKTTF
Sequence of T. vaginalis Tv20S proteasome β5 subunit (A2F716 entry or part of it): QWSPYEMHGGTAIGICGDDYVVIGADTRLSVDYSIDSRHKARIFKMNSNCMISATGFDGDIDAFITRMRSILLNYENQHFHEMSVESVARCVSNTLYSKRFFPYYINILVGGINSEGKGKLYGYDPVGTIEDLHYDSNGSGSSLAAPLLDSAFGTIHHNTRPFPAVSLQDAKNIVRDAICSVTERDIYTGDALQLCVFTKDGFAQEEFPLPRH
Experimental: as §1

[3] = molecular target: T1, Human c20S proteasome β1 subunit (Homo sapiens, UniProt P28072+Q99436); experiment: In vitro proteasome assay, z-LLE-amc substrate; assay type: biochemical; details: purified human c20S with PA28α, mean ± SD; for IC50: read-out: Human c20S proteasome inhibition of β1 subunit (IC50)
T1 construct: purchased Bio-Techne
Experimental: as §1

[4] = molecular target: T2, Human c20S proteasome β2 subunit (Homo sapiens, UniProt P49720+Q99436); experiment: In vitro proteasome assay, z-VLR-amc substrate; assay type: biochemical
T2 construct: purchased Bio-Techne
Experimental: as §1

[5] = molecular target: T. vaginalis Tv20S proteasome β1 subunit (Trichomonas vaginalis, UniProt A2E7Z2); experiment: In vitro proteasome assay, Ac-RYFD-amc substrate; assay type: biochemical; details: recombinant Tv20S, mean ± SD of three experiments
Sequence of T. vaginalis Tv20S proteasome β1 subunit (A2E7Z2 entry or part of it): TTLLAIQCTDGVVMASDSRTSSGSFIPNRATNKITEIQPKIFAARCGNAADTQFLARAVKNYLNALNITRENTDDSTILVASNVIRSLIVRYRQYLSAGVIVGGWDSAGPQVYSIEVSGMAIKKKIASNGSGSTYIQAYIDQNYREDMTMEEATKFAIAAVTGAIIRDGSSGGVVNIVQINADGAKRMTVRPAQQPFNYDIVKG
Experimental: as §1

[6] = molecular target: T3, Human c20S proteasome β5 subunit (Homo sapiens, UniProt P20618+P28074); experiment: In vitro proteasome assay, suc-LLVY-amc substrate; assay type: biochemical; details: purified human c20S with PA28α, mean ± SD
T3 construct: purchased Bio-Techne
Experimental: as §1

[7] = test system: T. vaginalis strain F1623; experiment: 24 h growth and survival assay (ATP luminescence, GI50); assay type: cell-based, Trichomonas vaginalis; details: for SI (ratio of GI50 in HeLa cells over GI50 in T. vaginalis): T. vaginalis F1623 vs human HeLa cells
Experimental: The following T. vaginalis strains were used: F1623 ([50]), G3 (ATCC PRA-98), and LA1 ([25]). […] Drug susceptibility assays were performed as described previously ([23]) with several minor modifications. Briefly, 10 mM stocks of the test compounds in DMSO were serially diluted 1:3 using an Echo 650 Acoustic Liquid Handler (Beckman Coulter). Subsequently, trophozoites (5 × 10^3/well) in TYM modified media were added to the wells in 384-well plates, and cultures were incubated for 24 h at 37°C under anaerobic conditions (AnaeroPack-Anaero System; Remel). For testing in mammalian cells, the following cell lines were used: Human cervical cancer cells HeLa (ATCC CCL-2), non-transformed mouse fibroblast cell line 3T3-L1 (ATCC CL-173), normal monkey kidney epithelial cell line Vero (ATCC CCL-81), and human B lymphoma cells Raji (ATCC CCL-86). Test compounds were serially diluted (1:3) and added to mammalian cell cultures grown in 384-well plates, and cultures were incubated for 48 h at 37°C in 5% CO2, 95% air. Growth and viability of T. vaginalis and mammalian cells were determined with an ATP assay by adding the BacTiter-Glo Microbial Cell Viability Assay reagent (Promega) directly to the wells and measuring ATP-dependent luminescence in a microplate reader. […] Experiments were repeated at least three times, and the mean and SEM of the pGI50 values were calculated.

[8] = purified human c20S with PA28α, mean ± SD, read-out: Human c20S proteasome inhibition of β2 subunit (IC50)
[9] = recombinant Tv20S, mean ± SD of three experiments, read-out: Tv20S proteasome inhibition of β5 subunit (IC50)
[10] = read-out: Human c20S proteasome inhibition of β5 subunit (IC50)
[11] = purified human c20S with PA28α, mean ± SD
[12] = relative to parental compound 4

Tv20S proteasome inhibition of β2 subunit (IC50) [1] | IC50 [4, 8] [nM] | Tv20S proteasome inhibition of β1 subunit (IC50) [5] | IC50 [2, 9] [nM] | IC50 [6, 10] [nM] | Human c20S proteasome inhibition of β1 subunit (IC50) [3] | Compound | SI (ratio of GI50 in HeLa cells over GI50 in T. vaginalis) [7] | other results
– | – | – | – | – | – | CC(C)C[C@H](NC(=O)[C@H](Cc1ccccc1)NC(=O)c1cnccn1)B(O)O [43 (BTZ), bortezomib, reference compound] | – | IC50 [1]: 30.8 ± 19.9 nM; IC50 ([2]; read-out: Tv20S proteasome inhibition of β5 subunit (IC50)): 21.6 ± 1.69 nM
No inhibition | 1690 ± 410 | Activation | 8.21 ± 1.16 | 11 ± 1.12 | – | COc1ccc(C[C@H](NC(=O)[C@H](C)NC(=O)C2=C(C)c3ccccc3C2)C(=O)N[C@@H](Cc2ccccc2)C(=O)[C@@]2(C)CO2)cc1 [compound 4] | 21.4 | IC50 [3]: 19700 ± 8580 nM
No inhibition | 68.2 ± 13 | Activation | 2.43 ± 0.39 | 1.06 ± 0.08 | No inhibition | CCCCC(=O)N[C@@H](Cc1ccc(O)cc1)C(=O)N[C@@H](CCCC)C(=O)N[C@@H](Cc1ccccc1)C(=O)[C@@]1(C)CO1 [compound 5] | – | –
No inhibition | – | Activation | 4.29 ± 2.23 | 45.3 ± 4.67 | No inhibition | COc1ccc(CC(NC(=O)C(C)NC(=O)OCc2ccccc2)C(=O)NC(Cc2ccccc2)C(=O)C2(C)CO2)cc1 (centres unmarked) [compound 11] | 51.3 | Human c20S proteasome inhibition of β2 subunit (IC50) [4, 11]: No inhibition
No inhibition | 2160 | Activation | 21 ± 2.47 | 8.16 ± 1.8 | No inhibition | CCCCCC(=O)N[C@@H](CO)C(=O)N[C@@H](CCCC)C(=O)N[C@@H](Cc1ccccc1)C(=O)[C@@]1(C)CO1 [compound 19] | – | –
– | – | – | – | – | – | CC(C)CC(NC(=O)C(CC12CC3CC(CC(C3)C1)C2)NC(=O)c1cnccn1)B(O)O (centres unmarked) [compound 32] | 1.02 | –
– | – | – | – | – | – | COc1ccc(C[C@H](NC(=O)[C@H](C)NC(=O)CN2CCOCC2)C(=O)N[C@@H](Cc2ccc3ccccc3c2)C(=O)[C@@]2(C)CO2)cc1 [compound 35] | 3.47 | –
No inhibition | – | Activation | 82.6 ± 32.1 | 1010 | No inhibition | CCCC[C@H](NC(=O)[C@H](CC(=O)N1CCCC1)NC(=O)[C@H](Cc1ccc(OC)cc1)N1CCCC1=O)C(=O)N[C@@H](Cc1ccc(F)cc1F)C(=O)[C@@]1(C)CO1 [compound 45] | – | Human c20S proteasome inhibition of β2 subunit (IC50) [4, 11]: No inhibition
No inhibition | 64.7 ± 8.19 | Activation | 9.25 ± 1.81 | 13.8 ± 4.21 | No inhibition | CSc1ccc(CC(=O)NC(C(=O)NC(Cc2c(F)c(F)c(F)c(F)c2F)C(=O)N[C@@H](CC(C)C)C(=O)[C@@]2(C)CO2)C(C)C)cc1 (some centres unmarked) [compound 50] | – | –
– | – | – | – | – | – | COc1ccc(C[C@H](NC(=O)[C@H](C)NC(=O)C2=C(C)c3ccccc3C2)C(=O)N[C@@H](Cc2ccc(-c3ccccc3)cc2)C(=O)[C@]2(C)CO2)cc1 [compound 60] | 8.13 | –
– | – | – | – | – | – | COc1ccc(C[C@H](NC(=O)[C@H](C)NC(=O)C2=C(C)c3ccccc3C2)C(=O)N[C@@H](Cc2ccccc2)C(=O)[C@@H]2CO2)cc1 [compound 66] | 2.69 | loss in selectivity [7, 12]: ~ 10 fold; reduction in activity against T. vaginalis [7, 12]: ~ 50 fold
No inhibition | – | Activation | 172 ± 91.7 | – | No inhibition | CCCCCC(=O)N[C@H](CC(=O)N[C@@H](CCCC)C(=O)N[C@@H](Cc1ccc(F)cc1F)C(=O)[C@@]1(C)CO1)CC(=O)OC(C)(C)C [compound 75] | – | Human c20S proteasome inhibition of β2 subunit (IC50) [4, 11]: No inhibition; Human c20S proteasome inhibition of β5 subunit (IC50) [6]: no measurable c20S β5 inhibitory activity; also recorded: No inhibition
No inhibition | – | Activation | 2.52 ± 1.05 | 8.81 ± 0.69 | No inhibition | CCCCC(=O)N[C@H](Cc1c[nH]c2ccccc12)C(=O)N[C@@H](Cc1c[nH]c2ccccc12)C(=O)N[C@@H](Cc1ccccc1)C(=O)[C@]1(C)CO1 [compound 91] | – | –
– | – | – | – | – | – | CCCCCC(=O)N[C@H](CCC(=O)OC(C)(C)C)CC(=O)N[C@@H](CCCC)C(=O)N[C@@H](Cc1ccccc1)C(=O)[C@@]1(C)CO1 [compound 94] | 3.16 | growth inhibitory activity against T. vaginalis (in words) ([7]; F1623): lacked activity and selectivity
– | – | – | – | – | – | COc1ccc(C[C@H](NC(=O)[C@H](C)NC(=O)CN2CCOCC2)C(=O)N[C@@H](CC2CCCCC2)C(=O)[C@@]2(C)CO2)cc1 [compound 156] | 0.83 | –
– | – | – | – | – | – | COc1ccc(C[C@H](NC(=O)[C@H](C)NC(=O)CN2CCOCC2)C(=O)N[C@@H](CC2CCC(C3CCCCC3)CC2)C(=O)[C@@]2(C)CO2)cc1 (some centres unmarked) [compound 197] | < 0.71 | –
– | – | – | – | – | – | COc1ccc(C[C@H](NC(=O)[C@H](C)NC(=O)CN2CCOCC2)C(=O)N[C@@H](CC2CCC(c3ccccc3)CC2)C(=O)[C@@]2(C)CO2)cc1 (some centres unmarked) [compound 201] | < 0.72 | –

Compound | Tv20S proteasome inhibition of β2 subunit (IC50) [1] | IC50 [4, 8] [nM] | Tv20S proteasome inhibition of β1 subunit (IC50) [5] | IC50 [2, 9] [nM] | IC50 [6, 10] [nM] | Human c20S proteasome inhibition of β1 subunit (IC50) [3] | SI (ratio of GI50 in HeLa cells over GI50 in T. vaginalis) [7] | other results
C[C@@]12OC(=O)[C@]1([C@@H](O)[C@@H]1C=CCCC1)NC(=O)[C@@H]2CCCl [18 (MZB), marizomib, reference compound] | No inhibition | 46.7 ± 11.2 | – | – | – | – | – | IC50 ([2]; Tv20S proteasome inhibition of β5 subunit (IC50), recombinant Tv20S, mean ± SD of three experiments): 0.88 ± 0.11 nM; IC50 [3]: 66.5 ± 11.7 nM
CCCCCC(=O)N[C@H](C(=O)N[C@@H](CCS(C)(=O)=O)C(=O)N[C@@H](CC(C)C)C(=O)[C@@]1(C)CO1)C(C)C [38 (CPB), carmaphycin B, reference compound] | – | 14.6 ± 0.83 | Activation | 1.51 ± 0.69 | 7.92 ± 0.72 | – | – | IC50 [1]: 440 ± 101 nM; β5 SI ratio (c20S/Tv20S) [2]: 5.25; IC50 [3]: 895 ± 510 nM
COc1ccc(CC(NC(=O)C(C)NC(=O)CN2CCOCC2)C(=O)NC(Cc2ccc(-c3ccccc3)cc2)C(=O)C2(C)CO2)cc1 (centres unmarked) [compound 3] | No inhibition | – | Activation | 12 ± 1.94 | – | No inhibition | 36.3 | IC50 [4]: 271 ± 26.4 nM; IC50 ([6]; Human c20S proteasome inhibition of β5 subunit (IC50)): 18.1 ± 3.26 nM
